Data as given in patent US20240279232A1, “USE OF SUBSTITUTED 5-(4-METHYL-6-PHENYL-4H-BENZO[F]IMIDAZO[1,5-A][1,4] DIAZEPIN-3-YL)-1,2,4-O[…] THE TREATMENT OF INFLAMMATORY CONDITIONS” (priority 2021, published 2024).
Where two headings read alike, the source gives them in different places.

How the values were obtained:
[1] = tested on: BZR (benzodiazepine site of GABAAR); assay: GABAAR/BZR binding, rat brain homogenate with 3H-flunitrazepam; settings: rat brain homogenate, 3H-flunitrazepam; for BZR %: Percent inhibition at 10,000 nM
Description: (§1) Ligand affinities were determined for KOR (κ opioid receptor), DOR (δ opioid receptor), and MOR (μ opioid receptor) using radioligand binding assays at a screening concentration of 10,000 nM. For these assays, cell homogenates from HEK293 cells that overexpressed KOR, MOR, and DOR were used in combination with [^3H]-U69593, [^3H]-DAMGO, and [^3H]-DADLE, respectively Compounds that exceeded more than 50% radioligand displacement were investigated further in concentration-dependent experiments to determine Ki values. Gamma aminobutyric acid type A receptor (GABAAR) binding was determined with rat brain homogenate and ^3H-flunitrazepam. Flunitrazepam binds GABAAR subtypes that consists of two α and two β subunits and one γ or δ subunit. Strong affinities to α1-3,5,6β1-3γ1-y/δ GABAARS have been reported for flunitrazepam. The […] GABAAR subtype expression in the brain includes 43% α1β2γ2, 15% α2β3γ2+8% α2βγ1, 10% α3β3γ2, 6% α4βγ/δ, 4% α5β3γ2, and 4% α6β2γ2/δ. Therefore, compounds with high affinity toward the synaptic benzodiazepine-sensitive receptors (BZR) predominately bind α1-3β2-3γ1-2 GABAARs. Alternatively, compounds with weak BZR binding might be selective for α4-6βγ/δ GABAARs.
(§2) Psychoactive Drug Screening Program. Detailed protocols for the primary and secondary radioligand binding assays can be found in the National Institute of Mental Health's Psychoactive Drug Screening Program (NIMH PDSP) Assay Protocol Book. Briefly, primary and secondary radioligand binding assays are carried out in a final of volume of 125 μL per well in appropriate binding buffer. The radioactive ligand concentration is close to the Kd. Total binding and nonspecific binding are determined in the absence and presence of 10 μM of appropriate reference compound, respectively. In brief, plates are usually incubated at room temperature and in the dark for 90 min. Reactions are stopped by vacuum filtration onto 0.3% polyethyleneimine (PEI) soaked 96-well filter mats using a 96-well Filtermate harvester, followed by three washes with cold PBS buffer. Scintillation cocktail is then melted onto the microwave-dried filters on a hot plate and radioactivity counted in a Microbeta counter. The data (n=6) were analyzed by nonlinear regression.

MOR (μ opioid receptor) = target: T1, MOR (μ opioid receptor) (Homo sapiens, UniProt P35372); assay: MOR radioligand binding ([3H]-DAMGO, HEK293 cell homogenates); settings: Percent inhibition at 10,000 nM; [3H]-DAMGO
T1 construct: expressed in transfected cells; host or cells: HEK293
Description: as §2, with “Radioligand binding assays.” for “Psychoactive Drug Screening Program.”, “Book (Roth, 2018).” for “Book.”, “The radioactive ligand concentration is close to the Kd.” left out, “compound (Naltrindole DOR, Salvinorin A KOR and DAMGO MOR).” for “compound, respectively.”
as §1, §2

DOR (δ opioid receptor) = target: T2, DOR (δ opioid receptor) (Homo sapiens, UniProt P41143); assay: DOR radioligand binding ([3H]-DADLE, HEK293 cell homogenates); settings: Percent inhibition at 10,000 nM; [3H]-DADLE
T2 construct: expressed in transfected cells; host or cells: HEK293
Description: as §2, with “Radioligand binding assays.” for “Psychoactive Drug Screening Program.”, “Book (Roth, 2018).” for “Book.”, “The radioactive ligand concentration is close to the Kd.” left out, “compound (Naltrindole DOR, Salvinorin A KOR and DAMGO MOR).” for “compound, respectively.”
as §1, §2

KOR (κ opioid receptor) = target: T3, KOR (κ opioid receptor) (Homo sapiens, UniProt P41145); assay: KOR radioligand binding ([3H]-U69593, HEK293 cell homogenates); settings: for inhibition at 10 µM: Percent inhibition at 10,000 nM
T3 construct: expressed in transfected cells; host or cells: HEK293 (stably transfected)
Description: as §2, with “Radioligand binding assays.” for “Psychoactive Drug Screening Program.”, “Book (Roth, 2018).” for “Book.”, “The radioactive ligand concentration is close to the Kd.” left out, “compound (Naltrindole DOR, Salvinorin A KOR and DAMGO MOR).” for “compound, respectively.”
as §1, §2

[2] = concentration-dependent, [3H]-U69593, read-out: KOR (Ki)

T1 sequence (P35372 whole entry, species assumed): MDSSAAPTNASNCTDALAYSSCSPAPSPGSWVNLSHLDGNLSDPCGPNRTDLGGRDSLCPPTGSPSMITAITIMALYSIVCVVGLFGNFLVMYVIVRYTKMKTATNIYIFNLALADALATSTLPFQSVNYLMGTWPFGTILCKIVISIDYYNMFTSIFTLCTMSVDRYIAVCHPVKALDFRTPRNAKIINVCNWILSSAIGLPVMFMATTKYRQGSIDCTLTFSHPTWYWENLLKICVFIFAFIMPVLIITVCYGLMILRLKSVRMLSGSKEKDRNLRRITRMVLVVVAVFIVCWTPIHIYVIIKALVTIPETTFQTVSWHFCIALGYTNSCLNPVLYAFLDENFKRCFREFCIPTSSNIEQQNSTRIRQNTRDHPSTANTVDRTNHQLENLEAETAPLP
T3 sequence (P41145 whole entry): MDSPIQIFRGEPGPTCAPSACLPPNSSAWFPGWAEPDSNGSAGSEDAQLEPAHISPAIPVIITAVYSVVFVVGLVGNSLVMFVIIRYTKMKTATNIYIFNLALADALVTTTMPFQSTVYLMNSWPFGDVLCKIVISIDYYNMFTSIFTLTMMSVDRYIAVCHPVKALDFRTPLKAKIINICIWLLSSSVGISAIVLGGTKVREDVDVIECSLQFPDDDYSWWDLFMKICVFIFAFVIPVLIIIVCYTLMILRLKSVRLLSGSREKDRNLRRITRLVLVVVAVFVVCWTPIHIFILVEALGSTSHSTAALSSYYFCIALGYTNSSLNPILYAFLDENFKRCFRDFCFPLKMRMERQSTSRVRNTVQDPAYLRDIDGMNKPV
T2 sequence (P41143 whole entry): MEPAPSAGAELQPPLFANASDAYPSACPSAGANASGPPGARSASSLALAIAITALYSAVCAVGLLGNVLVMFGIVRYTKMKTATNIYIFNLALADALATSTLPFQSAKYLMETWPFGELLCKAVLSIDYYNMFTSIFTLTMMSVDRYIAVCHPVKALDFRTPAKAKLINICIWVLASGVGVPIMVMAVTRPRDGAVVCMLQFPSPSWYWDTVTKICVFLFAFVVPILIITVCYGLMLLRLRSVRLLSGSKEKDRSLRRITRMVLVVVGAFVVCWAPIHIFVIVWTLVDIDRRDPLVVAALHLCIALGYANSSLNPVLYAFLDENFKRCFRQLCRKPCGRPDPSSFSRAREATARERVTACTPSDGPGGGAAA

| Compound | BZR % [1] [%] | Ki [1] [nM] | inhibition at 10 µM (MOR (μ opioid receptor)) [%] | inhibition at 10 µM (DOR (δ opioid receptor)) [%] | inhibition at 10 µM (KOR (κ opioid receptor); [3H]-U69593) [%] | Ki (KOR (κ opioid receptor); [2]) [nM] | Ki (KOR (κ opioid receptor)) [nM] |
| --- | --- | --- | --- | --- | --- | --- | --- |
| C#Cc1ccc2c(c1)C(c1ccccc1F)=N[C@@H](C)c1c(C(=O)OC(C)C)ncn1-2 [GL-I-31] | 97 | 245 | 32 | 8 | 94 | 65 | – |
| C#Cc1ccc2c(c1)C(c1ccccc1F)=N[C@@H](C)c1c(C(=O)OCCC)ncn1-2 [GL-I-32] | 98 | 148 | 9 | 14 | 95 | 64 | – |
| C#Cc1ccc2c(c1)C(c1ccccc1F)=N[C@@H](C)c1c(C(=O)OC(C)(C)CC)ncn1-2 [GL-I-33] | 96 | 117 | 30 | 25 | 94 | 34 | – |
| C#Cc1ccc2c(c1)C(c1ccccc1F)=N[C@@H](C)c1c(C(=O)OCC(F)(F)F)ncn1-2 [GL-I-36] | 77 | 418 | 8 | 0 | 85 | 411 | – |
| C#Cc1ccc2c(c1)C(c1ccccc1F)=N[C@@H](C)c1c(C(=O)OC3CC3)ncn1-2 [GL-I-38] | 96 | 127 | 18 | 16 | 95 | 68 | – |
| C#Cc1ccc2c(c1)C(c1ccccc1F)=N[C@@H](C)c1c(C(=O)NC(C)(C)C)ncn1-2 [GL-I-41] | 90 | 140 | 40 | 10 | 97 | 39 | – |
| C#Cc1ccc2c(c1)C(c1ccccc1F)=N[C@@H](C)c1c(C(=O)NCC)ncn1-2 [GL-I-43] | 94 | 44 | 22 | 3 | 95 | 102 | – |
| C#Cc1ccc2c(c1)C(c1ccccc1F)=N[C@@H](C)c1c(C(=O)N(C)C)ncn1-2 [GL-I-54] | 94 | 90 | 18 | 11 | 78 | 788 | – |
| C#Cc1ccc2c(c1)C(c1ccccc1F)=N[C@@H](C)c1c(C(=O)NC3CC3)ncn1-2 [GL-I-55] | 95 | 20 | 17 | 24 | 93 | 150 | – |
| C#Cc1ccc2c(c1)C(c1ccccc1F)=N[C@@H](C)c1c(C(=O)SCC)ncn1-2 [GL-I-77] | 92 | 124 | 41 | 4 | 95 | 125 | – |
| CCOC(=O)c1ncn2c1[C@H](C)N=C(c1ccccc1F)c1cc(C3CC3)ccc1-2 [GL-I-78] | 76 | 352 | 32 | 41 | 96 | – | 48 |
